# Test results taken from patent US8008262B2, “β-peptides” (Yale University, priority 2004, dated 2011).
# Like-named read-outs stand apart in the source and are kept apart here.
# Tests used:
# [1] = biological target: T1, hDM21-188 (hDM2) (Homo sapiens, UniProt Q00987); experiment: Direct fluorescence polarization binding of fluorescein-labeled ligands to hDM2
# [2] = biological target: T1, hDM21-188 (hDM2); experiment: Competition fluorescence polarization (cFP) assay, inhibition of p53AD^Flu·hDM2 complexation; format: binding
# [3] = Circular dichroism: extent of 14-helix structure in aqueous buffer; format: physicochemical; conditions: initial CD comparison of β53-1D and β53-1
# [4] = biological target: CREB KID·CBP KIX complex (Homo sapiens, UniProt Q92793); experiment: Inhibition of formation of the unrelated CREB KID·CBP KIX complex; format: binding; conditions: specificity control
# [5] = Analytical ultracentrifugation, oligomeric state; format: physicochemical
# [6] = system: HeLa-CD4-LTR-β-gal cells and CHO-SEC cells; experiment: Cell-fusion assay (syncitia formation), gp41 mediated fusion; format: cell-based, HIV-1; conditions: read-out: EC50, inhibition of cell-cell-fusion
# [7] = biological target: calmodulin (Homo sapiens, UniProt P0DP23); conditions: read-out: Kd for calmodulin
# [8] = biological target: IZN17; experiment: Direct fluorescence polarization binding to gp41 model IZN17; design: species or system HIV; conditions: fluorescein-labeled ligand, direct FP; read-out: equilibrium affinity (Kd) for IZN17
# [9] = biological target: carbonic anhydrase II (Homo sapiens, UniProt P00918); conditions: read-out: Kd for carbonic anhydrase II
# [10] = system: IZN17; experiment: Competition fluorescence polarization, inhibition of C14wt^Flu·IZN17 complexation; design: species or system HIV; conditions: read-out: IC50, competition with C14wt^Flu for IZN17 binding
# [11] = read-out: binding affinity (Kd) for hDM2
# [12] = read-out: IC50, inhibition of p53AD^Flu·hDM2 interaction
# [13] = fluorescein-labeled ligand, read-out: Kd, apparent equilibrium dissociation constant of complexes between fluorescein-labeled ligands and hDM2
# [14] = concentrations between 80 and 400 μM
# [15] = competition FP, unlabeled ligand
# T1 sequence (Q00987 1-188 limits assumed): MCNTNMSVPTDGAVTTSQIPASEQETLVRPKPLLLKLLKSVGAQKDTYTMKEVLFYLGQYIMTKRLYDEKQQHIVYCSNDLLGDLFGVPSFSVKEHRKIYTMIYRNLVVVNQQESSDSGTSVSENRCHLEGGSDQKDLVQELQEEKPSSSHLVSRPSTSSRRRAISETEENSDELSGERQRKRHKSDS
# Chain of CREB KID·CBP KIX complex (Q92793 587-666 limits assumed, one chain of several): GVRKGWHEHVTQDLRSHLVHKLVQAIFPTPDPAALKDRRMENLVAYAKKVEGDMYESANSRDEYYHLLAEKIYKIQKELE
structure (smiles),measurement,setting,value
CC[C@H](C)[C@@H](CC(=O)N[C@H](CC(=O)N[C@@H](CCC(=O)O)CC(=O)N[C@H](CC(=O)N[C@H](CC(=O)N[C@@H](CCCN)CC(=O)N[C@H](CC(=O)N[C@H](CC(=O)N[C@@H](CCC(=O)O)CC(=O)O)Cc1ccccc1)[C@@H](C)CC)Cc1c[nH]c2ccccc12)[C@@H](C)CC)CC(C)C)NC(=O)C[C@@H](N)CCCN [Hit 1],Kd,[1]; [11],0.055 ± 0.008 µM
same,IC50,[2]; [12],13 ± 1 µM
CC[C@H](C)[C@@H](CC(=O)N[C@H](CC(=O)N[C@@H](CCC(=O)O)CC(=O)N[C@H](CC(=O)N[C@H](CC(=O)N[C@@H](CCCN)CC(=O)N[C@H](CC(=O)N[C@H](CC(=O)N[C@@H](CCC(=O)O)CC(=O)O)Cc1ccccc1)C(C)C)Cc1c[nH]c2ccccc12)[C@@H](C)CC)CC(C)C)NC(=O)C[C@@H](N)CCCN [Hit 2],Kd,[1]; [11],0.089 ± 0.02 µM
same,IC50,[2]; [12],11 ± 1 µM
CC(C)C[C@@H](CC(=O)N[C@@H](CCC(=O)O)CC(=O)N[C@H](CC(=O)N[C@H](CC(=O)N[C@@H](CCCN)CC(=O)N[C@H](CC(=O)N[C@H](CC(=O)N[C@@H](CCC(=O)O)CC(=O)O)Cc1ccccc1)C(C)C)Cc1c[nH]c2ccccc12)C(C)C)NC(=O)C[C@@H](NC(=O)C[C@@H](N)CCCN)C(C)C [β53-1],mean residue ellipticity,[3],−8450.4 deg·cm^2·dmol^−1
same,inhibition of formation of CREB KID·CBP KIX complex,[4],failed to inhibit
same,Kd,[1]; [13],0.37 ± 0.08 µM
same,oligomeric state,[5]; at concentrations exceeding 1 mM,monomeric
same,oligomeric state,[5]; [14],monomeric
same,IC50,[2]; [15],94.5 ± 4.4 µM
CC(C)C[C@@H](CC(=O)N[C@H](CC(=O)N[C@@H](CCC(=O)O)CC(=O)N[C@H](CC(=O)N[C@H](CC(=O)N[C@@H](CCCN)CC(=O)N[C@H](CC(=O)N[C@H](CC(=O)N[C@@H](CCC(=O)O)CC(=O)O)C(C)C)Cc1ccccc1)C(C)C)Cc1c[nH]c2ccccc12)C(C)C)NC(=O)C[C@@H](N)CCCN [β53-3],oligomeric state,[5]; [14],monomeric
same,IC50,[2],1590 ± 104 µM
CC(C)C[C@H](N)CC(=O)N[C@@H](CCC(=O)O)CC(=O)N[C@H](CC(=O)N[C@H](CC(=O)N[C@@H](CCCN)CC(=O)N[C@H](CC(=O)N[C@H](CC(=O)N[C@@H](CCC(=O)O)CC(=O)O)Cc1ccccc1)C(C)C)Cc1c[nH]c2ccccc12)C(C)C [β53-5],IC50,[2]; [15],80.8 ± 3.2 µM
CC(C)[C@H](N)CC(=O)N[C@H](CC(=O)N[C@@H](CCCN)CC(=O)N[C@H](CC(=O)N[C@H](CC(=O)N[C@@H](CCC(=O)O)CC(=O)O)Cc1ccccc1)C(C)C)Cc1c[nH]c2ccccc12 [β53-6],IC50 fold better than β53-1 and β53-5,[2],over 2 fold
same,IC50,[2]; [15],36.2 ± 2.6 µM
"CC(C)[C@H](N)CC(=O)N[C@H](CC(=O)N[C@@H](CCC(=O)O)CC(=O)NCCC(=O)O)Cc1c[nH]c2ccccc12 [β53-7, reference compound]",IC50,[2]; competition FP,> 1000 µM
CC(C)C[C@@H](CC(=O)N[C@@H](CCC(=O)O)CC(=O)N[C@H](CC(=O)N[C@H](CC(=O)N[C@@H](CCCN)CC(=O)N[C@H](CC(=O)N[C@H](CC(=O)N[C@@H](CCC(=O)O)CC(=O)O)Cc1ccccc1)C(C)C)Cc1c[nH]c2ccccc12)C(C)C)NC(=O)[C@H]1CCCC[C@@H]1NC(=O)C[C@@H](N)CCCN [β53-AC2],Kd,[1]; [13],0.21 ± 0.04 µM
same,oligomeric state,[5],no evidence of oligomerization
same,IC50,[2]; unlabeled ligand,15.5 ± 1 µM
CC(C)C[C@@H](CC(=O)N[C@@H](CCC(=O)O)CC(=O)N[C@H]1CCCC[C@@H]1C(=O)N[C@H](CC(=O)N[C@@H](CCCN)CC(=O)N[C@H](CC(=O)N[C@H](CC(=O)N[C@@H](CCC(=O)O)CC(=O)O)Cc1ccccc1)C(C)C)Cc1c[nH]c2ccccc12)NC(=O)C[C@@H](NC(=O)C[C@@H](N)CCCN)C(C)C [β53-AC5],Kd,[1]; [13],0.21 ± 0.04 µM
same,oligomeric state,[5],"discrete higher-order oligomers, likely hexamers or heptamers"
same,IC50,[2]; unlabeled ligand,60.3 ± 3.8 µM
CC(C)C[C@@H](CC(=O)N[C@@H](CCC(=O)O)CC(=O)N[C@H](CC(=O)N[C@H](CC(=O)N[C@@H](CCCN)CC(=O)N[C@H]1CCCC[C@@H]1C(=O)N[C@H](CC(=O)N[C@@H](CCC(=O)O)CC(=O)O)Cc1ccccc1)Cc1c[nH]c2ccccc12)C(C)C)NC(=O)C[C@@H](NC(=O)C[C@@H](N)CCCN)C(C)C [β53-AC8],Kd,[1]; [13],0.22 ± 0.06 µM
same,oligomeric state,[5],could indicate a monomer-dimer equilibrium at low millimolar concentrations
same,IC50,[2]; unlabeled ligand,10.5 ± 0.8 µM
CC(C)C[C@@H](CC(=O)N[C@@H](CCC(=O)O)CC(=O)N[C@H]1CCCC[C@@H]1C(=O)N[C@H](CC(=O)N[C@@H](CCCN)CC(=O)N[C@H]1CCCC[C@@H]1C(=O)N[C@H](CC(=O)N[C@@H](CCC(=O)O)CC(=O)O)Cc1ccccc1)Cc1c[nH]c2ccccc12)NC(=O)[C@H]1CCCC[C@@H]1NC(=O)C[C@@H](N)CCCN [β53-ACtrip],Kd,[1]; [13],0.17 ± 0.05 µM
same,oligomeric state,[5],"discrete higher-order oligomers, likely hexamers or heptamers"
same,IC50,[2]; unlabeled ligand,17.2 ± 1.3 µM
CC(C)[C@@H](CC(=O)N[C@H](CC(=O)N[C@@H](CCC(=O)O)CC(=O)O)Cc1ccccc1)NC(=O)C[C@H](CCCN)NC(=O)C[C@H](C)NC(=O)C[C@@H](NC(=O)C[C@H](CCC(=O)O)NC(=O)C[C@H](C)NC(=O)C[C@@H](NC(=O)C[C@@H](N)CCCN)C(C)C)C(C)C [β53-F9],IC50,[2]; [15],1700 ± 163 µM
CC(C)C[C@@H](CC(=O)N[C@@H](CCC(=O)O)CC(=O)N[C@H](CC(=O)N[C@@H](C)CC(=O)N[C@@H](CCCN)CC(=O)N[C@H](CC(=O)N[C@@H](C)CC(=O)N[C@@H](CCC(=O)O)CC(=O)O)C(C)C)C(C)C)NC(=O)C[C@@H](NC(=O)C[C@@H](N)CCCN)C(C)C [β53-L3],IC50,[2]; [15],> 7000 µM
CC(C)[C@@H](CC(=O)N[C@H](CC(=O)N[C@@H](CCCN)CC(=O)N[C@H](CC(=O)N[C@@H](C)CC(=O)N[C@@H](CCC(=O)O)CC(=O)O)C(C)C)Cc1c[nH]c2ccccc12)NC(=O)C[C@H](CCC(=O)O)NC(=O)C[C@H](C)NC(=O)C[C@@H](NC(=O)C[C@@H](N)CCCN)C(C)C [β53-W6],IC50 value fold higher than that of β53-1,[2],2 fold
same,IC50,[2]; [15],198 ± 10 µM
CC[C@H](C)[C@@H](CC(=O)N[C@@H](CCC(=O)O)CC(=O)N[C@H](CC(=O)N[C@H](CC(=O)N[C@@H](CCCN)CC(=O)N[C@H](CC(=O)N[C@H](CC(=O)N[C@@H](CCC(=O)O)CC(=O)O)Cc1c[nH]c2ccccc12)C(C)C)Cc1c[nH]c2ccccc12)C(C)C)NC(=O)C[C@@H](NC(=O)C[C@@H](N)CCCN)C(C)C [βWWI-1],EC50,[6],27 ± 2.5 µM
same,Kd,[7],≥ 100 µM
same,Kd,[8],0.75 ± 0.1 µM
same,Kd,[9],≥ 115 µM
same,IC50,[10],4 ± 0.7 µM
CC[C@H](C)[C@@H](CC(=O)N[C@H](CC(=O)N[C@@H](CCC(=O)O)CC(=O)N[C@H](CC(=O)N[C@H](CC(=O)N[C@@H](CCCN)CC(=O)N[C@H](CC(=O)N[C@H](CC(=O)N[C@@H](CCC(=O)O)CC(=O)O)C(C)C)Cc1c[nH]c2ccccc12)C(C)C)Cc1c[nH]c2ccccc12)C(C)C)NC(=O)C[C@@H](N)CCCN [βWWI-2],EC50,[6],15 ± 1.6 µM
same,Kd,[8],1 ± 0.3 µM
same,IC50,[10],4.6 ± 0.4 µM
CC[C@H](C)[C@@H](CC(=O)N[C@H](CC(=O)N[C@@H](CCC(=O)O)CC(=O)O)C(C)C)NC(=O)C[C@H](CCCN)NC(=O)C[C@@H](NC(=O)C[C@H](Cc1c[nH]c2ccccc12)NC(=O)C[C@H](CCC(=O)O)NC(=O)C[C@@H](NC(=O)C[C@H](Cc1c[nH]c2ccccc12)NC(=O)C[C@@H](N)CCCN)C(C)C)C(C)C [βWWI-3],EC50,[6],13 ± 1.9 µM
same,Kd,[8],2.4 ± 0.7 µM
same,IC50,[10],13 ± 4.1 µM
CC[C@H](C)[C@@H](CC(=O)N[C@@H](CCC(=O)O)CC(=O)O)NC(=O)C[C@@H](NC(=O)C[C@H](CCCN)NC(=O)C[C@H](Cc1c[nH]c2ccccc12)NC(=O)C[C@@H](NC(=O)C[C@H](CCC(=O)O)NC(=O)C[C@H](Cc1c[nH]c2ccccc12)NC(=O)C[C@@H](NC(=O)C[C@@H](N)CCCN)C(C)C)C(C)C)C(C)C [βWWI-4],EC50,[6],5.3 ± 0.5 µM
same,Kd,[8],1.5 ± 0.4 µM
same,IC50,[10],3.3 ± 1.4 µM
"N[C@H](CC(=O)O)Cc1c[nH]c2ccccc12 [β^3W, β^3-homotyptophan, reference compound]",IC50,[2]; competition FP,> 1000 µM
